According to US12559464B2, “Quinazolinone dione compounds and uses thereof” (Edgewise Therapeutics, Inc., priority 2023, dated 2026):

Tests used:
[1] = tested on: myosin ATPase, Porcine Atria myofibrils; test: Myofibril ATPase assay, porcine atria myofibrils; type: biochemical; settings: concentration required to reduce myosin ATP-ase activity by 25%; Porcine Atria Prep pCa 25 GEOM_MEAN
[2] = tested on: myosin ATPase, Rabbit Psoas myofibrils; test: Myofibril ATPase assay, rabbit psoas (skeletal) myofibrils; type: biochemical; settings: concentration required to reduce myosin ATP-ase activity by 25%; Rabbit Psoas Prep pCa 25 GEOM_MEAN
Experimental: [Worded in the source for another species; this species is reported under the same test.] (§1) Myofibril ATPase assays are known in the art to be useful in evaluating small molecules for the treatment of HCM and other cardiac indications. Myosin ATPase activity is assessed by using a coupled reaction system, in which ADP generated by the myosin ATPase function is coupled to the disappearance of NADH through the pyruvate kinase/lactate dehydrogenase (PK-LDH) system. ATPase activity produces ADP, which is used as a substrate for PK to produce pyruvate and regenerate ATP. The pyruvate is then used as a substrate by LDH to oxidize NADH to NAD+. The rate of the reaction is monitored through the time-dependent disappearance of NADH using absorbance at 340 nm, which, when the couple system is in stoichiometric excess, is directly correlated to the ATPase activity of the myosin. Inhibition of ATPase activity by the assayed compounds is indicated by a reduced rate of NADH loss, relative to vehicle-treated controls, over the experimental time window. Porcine Ventricle are the primary sources of myofibril material.
(§2) Materials: The following stock solutions and reagents were used in the Myofibril ATPase Assay: Stock Solutions; PIPES, 200 mM and 120 mM in H2O, pH 7.0; MgCl2 in H2O, 200 mM; PM12 Buffer, 10×: 120 mM PIPES (from 200 mM stock), 20 mM MgCl2 (from 200 mM stock); PBS Buffer, 1X: 135 mM NaCl, […], 10 mM Na(PO4)2, 1.8 mM K2(PO4), pH 7.4; EGTA in H2O, 250 mM; CaCl2) in H2O, 500 mM; DTT in H2O, 1 M; BSA in H2O, 10 mg/mL; ATP in 1×PBS, 50 mM; NADH in 1X PM12 and 1 mM DTT, 26 mM; PEP in 1X PM12, 78 mM, pH 7.0.
(§3) Stock Solutions of pCa buffer. Combine PIPES, CaCl2, and EGTA solutions with water. Adjust pH to 7.0 and bring final volume to 100 mL.
(§4) Buffer A & Buffer B. Prepare buffers A and B according to the table below.
(§5) Myofibril ATPase Assay Procedure: BSA, ATP, NADH, PEP, and DTT solutions were thawed at room temperature, then transferred to ice. Pellet-frozen myofibrils were transferred with approximately twice the required volume into a sufficiently large tube and capped. Myofibrils were thawed by rolling in a water bath for approximately 15 min at room temperature and cooled on ice. Buffers A and B were prepared by adjusting volumes as necessary for required number of wells and stored on ice. 0.5 μL of the compounds to be assayed were added into wells. 25 μL of Buffer A was dispensed into the wells, followed by 25 μL of Buffer B. The wells were measured for absorbance at 340 nm, using a kinetic protocol in which the wells are read every 1.5-2 min for 75 min. Assay data analysis was performed using a python script that filtered the raw data to retain those points falling between a starting and ending time and between a maximum and minimum absorbance, then used the filtered time-domain 340 nm absorbance data in each well to calculate a slope via linear regression analysis in units of mAU/min. Compound slopes were normalized between 100% and 0% activity, where 100% represented the slope of wells containing only compound vehicle, and fit to a 4-parameter logistic model. In addition to the fit parameters, the EC25% values were calculated, relative to the 100% normalized value. Additionally, the Y125 values were calculated for compounds that increased myosin ATP-ase activity. Fit parameters, calculated effective concentrations, filtered raw data, and calculated slopes were exported, in addition to compound-specific graphs of normalized ATPase activity versus concentration in μM. Each value reported in Table 8 is either a Y75 value or a Y125 value. Values without pound sign, #, are Y75 values, which reflect the concentration required to reduce myosin ATP-ase activity by 25% (e.g., Y-axis activity value is 75% of initial value), relative to myosin ATP-ase activity in the absence of exogenous compound. […]

[3] = molecular target: T1, myosin ATPase, Porcine Ventricle myofibrils (Sus scrofa, UniProt P79293); test: Myofibril ATPase assay, porcine ventricle myofibrils; type: biochemical, porcine (Yucatan minipigs); settings: concentration required to reduce myosin ATP-ase activity by 25%; Porcine Ventricle Prep pCa 25 GEOM_MEAN
T1 construct: Myofibrils from porcine cardiac muscle was isolated from the left ventricle of Yucatan minipigs; tissue Exemplar Genetics; host or cells: left ventricle of Yucatan minipigs, myofibrils
Experimental: as §1, §2, §3, §4, §5

T1 sequence (P79293 whole entry): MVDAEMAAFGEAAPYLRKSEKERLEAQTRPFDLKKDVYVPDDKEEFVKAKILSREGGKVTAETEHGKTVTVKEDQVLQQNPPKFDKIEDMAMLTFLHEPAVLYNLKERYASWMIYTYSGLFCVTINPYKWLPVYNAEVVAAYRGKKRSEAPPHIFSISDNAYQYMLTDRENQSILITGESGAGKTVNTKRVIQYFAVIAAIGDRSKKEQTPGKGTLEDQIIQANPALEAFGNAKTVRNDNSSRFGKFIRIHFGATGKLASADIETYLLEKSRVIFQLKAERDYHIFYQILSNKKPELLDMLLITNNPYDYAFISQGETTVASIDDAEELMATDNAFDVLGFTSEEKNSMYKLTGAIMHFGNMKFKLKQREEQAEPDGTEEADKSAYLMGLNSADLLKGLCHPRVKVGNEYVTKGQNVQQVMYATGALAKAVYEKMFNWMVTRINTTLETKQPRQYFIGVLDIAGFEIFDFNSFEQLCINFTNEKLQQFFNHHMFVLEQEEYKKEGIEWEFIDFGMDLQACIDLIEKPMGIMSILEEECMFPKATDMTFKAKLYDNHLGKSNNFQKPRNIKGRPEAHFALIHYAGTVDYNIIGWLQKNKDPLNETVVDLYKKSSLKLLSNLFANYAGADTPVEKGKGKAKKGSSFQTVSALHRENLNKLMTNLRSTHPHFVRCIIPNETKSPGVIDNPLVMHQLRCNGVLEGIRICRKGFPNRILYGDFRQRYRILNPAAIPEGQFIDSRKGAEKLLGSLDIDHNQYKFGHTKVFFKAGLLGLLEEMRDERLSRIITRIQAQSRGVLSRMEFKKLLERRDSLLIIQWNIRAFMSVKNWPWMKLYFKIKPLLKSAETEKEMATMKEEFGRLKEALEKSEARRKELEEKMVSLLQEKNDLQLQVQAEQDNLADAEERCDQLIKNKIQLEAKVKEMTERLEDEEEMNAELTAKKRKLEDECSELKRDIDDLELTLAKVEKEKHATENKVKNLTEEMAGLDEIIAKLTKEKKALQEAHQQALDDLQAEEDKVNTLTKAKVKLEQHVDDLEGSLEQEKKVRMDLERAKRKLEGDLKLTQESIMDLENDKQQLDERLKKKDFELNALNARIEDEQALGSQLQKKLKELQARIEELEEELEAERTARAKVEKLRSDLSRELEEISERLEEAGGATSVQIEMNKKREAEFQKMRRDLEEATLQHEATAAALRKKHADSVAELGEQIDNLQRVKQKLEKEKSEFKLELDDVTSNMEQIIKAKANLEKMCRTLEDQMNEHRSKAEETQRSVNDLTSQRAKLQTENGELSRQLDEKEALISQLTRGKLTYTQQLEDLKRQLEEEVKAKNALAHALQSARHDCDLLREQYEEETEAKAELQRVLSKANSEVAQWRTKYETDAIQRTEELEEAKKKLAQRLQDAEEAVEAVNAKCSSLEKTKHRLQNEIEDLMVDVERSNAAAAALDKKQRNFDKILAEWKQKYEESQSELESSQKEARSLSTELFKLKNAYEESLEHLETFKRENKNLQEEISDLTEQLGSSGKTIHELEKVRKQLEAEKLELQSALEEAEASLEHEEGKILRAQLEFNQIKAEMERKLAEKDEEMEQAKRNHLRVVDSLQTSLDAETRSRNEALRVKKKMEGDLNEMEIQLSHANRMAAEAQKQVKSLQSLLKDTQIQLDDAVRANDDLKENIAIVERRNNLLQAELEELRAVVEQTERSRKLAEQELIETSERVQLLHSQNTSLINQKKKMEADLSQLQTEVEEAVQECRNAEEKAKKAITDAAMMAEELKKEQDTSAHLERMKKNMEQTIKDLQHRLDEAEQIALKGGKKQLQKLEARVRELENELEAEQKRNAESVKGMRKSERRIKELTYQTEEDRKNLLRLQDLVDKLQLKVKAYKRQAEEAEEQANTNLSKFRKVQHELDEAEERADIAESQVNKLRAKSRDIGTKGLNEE

SMILES: C[C@H](NC(=O)[C@@H](C)n1c(=O)[nH]c2ccccc2c1=O)c1ccc(F)cc1F (single isomer, unassigned) [Compound 101]
- Porcine Atria EC25 (Y75 value) [1]: 1.036 µM
- Rabbit Psoas EC25 (Y75 value) [2]: 1.521 µM
- Porcine Ventricle EC25 (Y75 value) [3]: 87.37 µM

SMILES: C[C@H](NC(=O)[C@H](C)n1c(=O)[nH]c2ccccc2c1=O)c1ccc(F)cc1F (single isomer, unassigned) [Compound 102]
- Porcine Atria EC25 (Y75 value) [1]: 1.175 µM
- Rabbit Psoas EC25 (Y75 value) [2]: 0.761 µM
- Porcine Ventricle EC25 (Y75 value) [3]: 99.13 µM

SMILES: C[C@H](NC(=O)Cn1c(=O)[nH]c2cccc(F)c2c1=O)c1ncc(C#N)cn1 (single isomer, unassigned) [Compound 202]
- Porcine Atria EC25 (Y75 value) [1]: 8.617 µM
- Rabbit Psoas EC25 (Y75 value) [2]: 7.437 µM
- Porcine Ventricle EC25 (Y75 value) [3]: 100 µM

SMILES: C[C@H](NC(=O)Cn1c(=O)[nH]c2cccc(C#N)c2c1=O)c1ncc(C#N)cn1 (single isomer, unassigned) [Compound 204]
- Porcine Atria EC25 (Y75 value) [1]: 100 µM
- Rabbit Psoas EC25 (Y75 value) [2]: 100 µM
- Porcine Ventricle EC25 (Y75 value) [3]: 70.61 µM

SMILES: C[C@@H](NC(=O)Cn1c(=O)[nH]c2cccc(F)c2c1=O)c1ncc(C#N)cc1F (single isomer, unassigned) [Compound 207]
- Porcine Atria EC25 (Y75 value) [1]: 100 µM
- Rabbit Psoas EC25 (Y75 value) [2]: 4.593 µM
- Porcine Ventricle EC25 (Y75 value) [3]: 100 µM

SMILES: C[C@H](NC(=O)Cn1c(=O)[nH]c2cccc(F)c2c1=O)c1ncc(C#N)cc1F (single isomer, unassigned) [Compound 208]
- Porcine Atria EC25 (Y75 value) [1]: 0.085 µM
- Rabbit Psoas EC25 (Y75 value) [2]: 0.065 µM
- Porcine Ventricle EC25 (Y75 value) [3]: 0.254 µM

SMILES: C[C@@H](NC(=O)Cn1c(=O)[nH]c2ccc(F)cc2c1=O)c1cnc(C#N)nc1 (single isomer, unassigned) [Compound 209]
- Porcine Atria EC25 (Y75 value) [1]: 100 µM
- Rabbit Psoas EC25 (Y75 value) [2]: 39.51 µM
- Porcine Ventricle EC25 (Y75 value) [3]: 100 µM

SMILES: C[C@H](NC(=O)Cn1c(=O)[nH]c2ccc(F)cc2c1=O)c1cnc(C#N)nc1 (single isomer, unassigned) [Compound 210]
- Porcine Atria EC25 (Y75 value) [1]: 0.118 µM
- Rabbit Psoas EC25 (Y75 value) [2]: 0.174 µM
- Porcine Ventricle EC25 (Y75 value) [3]: 0.559 µM

SMILES: C[C@H](NC(=O)[C@H](CC1CC1)n1c(=O)[nH]c2ccccc2c1=O)c1ncc(F)cc1F (single isomer, unassigned) [Compound 211]
- Porcine Atria EC25 (Y75 value) [1]: 100 µM
- Rabbit Psoas EC25 (Y75 value) [2]: 100 µM
- Porcine Ventricle EC25 (Y75 value) [3]: 100 µM

SMILES: C[C@H](NC(=O)[C@@H](CC1CC1)n1c(=O)[nH]c2ccccc2c1=O)c1ncc(F)cc1F (single isomer, unassigned) [Compound 212]
- Porcine Atria EC25 (Y75 value) [1]: 100 µM
- Rabbit Psoas EC25 (Y75 value) [2]: 100 µM
- Porcine Ventricle EC25 (Y75 value) [3]: 100 µM

SMILES: C[C@H](NC(=O)[C@H](CC1CC1)n1c(=O)[nH]c2ccccc2c1=O)c1ccc(F)cc1F (single isomer, unassigned) [Compound 501]
- Porcine Atria EC25 (Y75 value) [1]: 100 µM
- Rabbit Psoas EC25 (Y75 value) [2]: 84.531 µM
- Porcine Ventricle EC25 (Y75 value) [3]: 50.21 µM

SMILES: C[C@H](NC(=O)[C@@H](CC1CC1)n1c(=O)[nH]c2ccccc2c1=O)c1ccc(F)cc1F (single isomer, unassigned) [Compound 502]
- Porcine Atria EC25 (Y75 value) [1]: 43.27 µM
- Rabbit Psoas EC25 (Y75 value) [2]: 13.814 µM
- Porcine Ventricle EC25 (Y75 value) [3]: 100 µM

SMILES: Cc1cc(F)ccc1[C@H](C)NC(=O)Cn1c(=O)[nH]c2ccccc2c1=O (single isomer, unassigned) [Compound 503]
- Porcine Atria EC25 (Y75 value) [1]: 0.1046 µM
- Rabbit Psoas EC25 (Y75 value) [2]: 0.36 µM
- Porcine Ventricle EC25 (Y75 value) [3]: 1.526 µM
